Like-named read-outs stand apart in the source and are kept apart here.
How the values were obtained:
[1] = molecular target: Beta Secretase enzyme (BACE) (Homo sapiens, UniProt P56817); assay: In vitro enzymatic BACE FRET (fluorescence resonance energy transfer) assay; assay type: biochemical; settings: average IC50, enzyme assay; read-out: BACE 1 FRET assay
Summary of the method: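 A peptide bearing a fluorophore and quencher across the cleavage site serves as substrate at 50 nM. Reactions proceed one hour in acidic acetate buffer (0.05 M, pH 4.2) containing 10% DMSO final and 100 uM genapol, then are terminated with Tris and read fluorimetrically.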

[2] = test system: Aβ40 in conditioned medium of cells stably expressing Amyloid Precursor Protein (APP); assay: In vitro BACE cell-based assay (Aβ40 in conditioned medium, sandwich ELISA); settings: read-out: HEK cell assay
Summary of the method: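 Step two: 10-point compound titration added, starting 100 μM or 10 μM, 0.1% DMSO. Step three: medium Aβ40 measured by ELISA, capture 3 h and detection 2 h at 4° C, TRF read.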

[3] = Homo sapiens, HEK293, average IC50, HEK cells
[4] = Homo sapiens, HEK293, average IC50

Chain of Beta Secretase enzyme (BACE) (P56817 46-501, species assumed): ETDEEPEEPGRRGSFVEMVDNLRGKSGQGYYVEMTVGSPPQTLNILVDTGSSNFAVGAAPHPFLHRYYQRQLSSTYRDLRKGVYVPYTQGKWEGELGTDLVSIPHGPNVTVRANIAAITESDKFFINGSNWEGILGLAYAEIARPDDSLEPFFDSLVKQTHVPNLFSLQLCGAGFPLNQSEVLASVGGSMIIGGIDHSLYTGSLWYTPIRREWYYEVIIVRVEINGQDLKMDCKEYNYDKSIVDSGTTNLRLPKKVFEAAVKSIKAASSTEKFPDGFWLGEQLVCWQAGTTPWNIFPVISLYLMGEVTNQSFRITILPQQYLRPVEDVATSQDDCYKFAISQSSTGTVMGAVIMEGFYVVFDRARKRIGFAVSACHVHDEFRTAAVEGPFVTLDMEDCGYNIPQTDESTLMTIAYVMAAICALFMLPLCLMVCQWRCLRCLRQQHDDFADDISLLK

Row | SMILES | IC50 [1] | IC50 [2, 3] | IC50 [2, 4] | IC50 ([2]; average IC50, HEK cells)
1 | CC1(C#Cc2cnc3c(c2)[C@]2(CSC(N)=N2)c2cc(-c4cnccn4)ccc2O3)COC1 [Example 666, (5S)-3-((3-methyl-3-oxetanyl)ethynyl)-7-(2-pyrazinyl)spiro[chromeno[2,3-b]pyridine-5,4′-[1,3]thiazol]-2′-amine] | 0.8 nM | 13 nM | – | –
2 | CC1(C#Cc2cnc3c(c2)[C@]2(COC(N)=N2)c2c(ccc(-c4ccc(F)nc4)c2F)O3)COC1 [Example 342, (5R)-6-fluoro-7-(6-fluoro-3-pyridinyl)-3-((3-methyl-3-oxetanyl)ethynyl)spiro[chromeno[2,3-b]pyridine-5,4′-[1,3]oxazol]-2′-amine] | 2.4 nM | – | 16 nM | –
3 | CC(C)(C#N)COc1cc(F)c2c(c1)[C@]1(COC(N)=N1)c1cc(-c3cnccc3F)ccc1O2 [Example 605, 3-(((4S)-2-amino-4′-fluoro-7′-(4-fluoro-3-pyridinyl)spiro[1,3-oxazole-4,9′-xanthen]-2′-yl)oxy)-2,2-dimethylpropanenitrile] | 0.8 nM | 10 nM | – | –
4 | COc1ncc(Cl)cc1-c1ccc2c(c1)[C@@]1(COC(N)=N1)c1cc(C3=CCOCC3)ncc1O2 [Example 235, (5S)-7-(5-chloro-2-methoxy-3-pyridinyl)-3-(3,6-dihydro-2H-pyran-4-yl)spiro[chromeno[2,3-c]pyridine-5,4′-[1,3]oxazol]-2′-amine] | 1.2 nM | – | 14.7 nM | –
5 | NC1=N[C@@]2(CO1)c1cc(Oc3ccc(Cl)cn3)ccc1Oc1c(F)cc(N3CCOCC3)cc12 [Example 1061, (4S)-7′-((5-chloro-2-pyridinyl)oxy)-4′-fluoro-2′-(4-morpholinyl)spiro[1,3-oxazole-4,9′-xanthen]-2-amine] | 57.4 nM | – | 538 nM | –
6 | NC1=N[C@@]2(CO1)c1cc(-c3cncc(C4=CCOCC4)c3)ccc1Oc1cnc(C3=CCOCC3)cc12 [Example 231, (5S)-3-(3,6-dihydro-2H-pyran-4-yl)-7-(5-(3,6-dihydro-2H-pyran-4-yl)-3-pyridinyl)spiro[chromeno[2,3-c]pyridine-5,4′-[1,3]oxazol]-2′-amine] | 34 nM | – | 106 nM | –
7 | Cn1cc(-c2cc3c(cn2)Oc2ccc(-c4ccc(F)nc4)cc2[C@@]32COC(N)=N2)cn1 [Example 365, (5S)-7-(6-fluoro-3-pyridinyl)-3-(1-methyl-1H-pyrazol-4-yl)spiro[chromeno[2,3-c]pyridine-5,4′-[1,3]oxazol]-2′-amine] | 10.8 nM | – | 42.4 nM | –
8 | NC1=N[C@@]2(CO1)c1cc(-c3cncnc3)c(F)cc1Oc1c(F)cc(C3=CCCOC3)cc12 [Example 1039, (4S)-7′-(5,6-dihydro-2H-pyran-3-yl)-3′,5′-difluoro-2′-(5-pyrimidinyl)spiro[1,3-oxazole-4,9′-xanthen]-2-amine] | 0.4 nM | – | 8 nM | –
9 | COc1cccc(Nc2ccc3c(c2)[C@@]2(COC(N)=N2)c2cc(N4CCOCC4)cc(F)c2O3)c1 [Example 198, (4S)-5′-fluoro-N~2~′-(3-methoxyphenyl)-7′-(4-morpholinyl)spiro[1,3-oxazole-4,9′-xanthene]-2,2′-diamine] | 77.9 nM | – | 572 nM | –
10 | NC1=N[C@@]2(CS1)c1cc(-c3cccnc3F)ccc1Oc1cnc(N3CC[C@@H](F)C3)cc12 [Example 929, (5S)-7-(2-fluoro-3-pyridinyl)-3-((3R)-3-fluoro-1-pyrrolidinyl)spiro[chromeno[2,3-c]pyridine-5,4′-[1,3]thiazol]-2′-amine] | 0.3 nM | 3 nM | – | –
11 | NC1=N[C@@]2(CS1)c1cc(-c3cncc(F)c3)ccc1Oc1cnc(C3=CCOCC3)cc12 [Example 592, (5S)-3-(3,6-dihydro-2H-pyran-4-yl)-7-(5-fluoro-3-pyridinyl)spiro[chromeno[2,3-c]pyridine-5,4′-[1,3]thiazol]-2′-amine] | 0.9 nM | – | – | 21.3 nM
12 | NC1=N[C@@]2(CS1)c1cc(-c3cncnc3)c(F)cc1Oc1c(F)cc(C3=CCCOC3)cc12 [Example 873, (4S)-7′-(5,6-dihydro-2H-pyran-3-yl)-3′,5′-difluoro-2′-(5-pyrimidinyl)spiro[1,3-thiazole-4,9′-xanthen]-2-amine] | 0.3 nM | 7 nM | – | –
13 | CC(C)(C#N)COc1ccc2c(c1)[C@@]1(COC(N)=N1)c1cc(C3=CCOCC3)cc(F)c1O2 [Example 441, 3-(((4S)-2-amino-7′-(3,6-dihydro-2H-pyran-4-yl)-5′-fluorospiro[1,3-oxazole-4,9′-xanthen]-2′-yl)oxy)-2,2-dimethylpropanenitrile] | 4 nM | 14.4 nM | – | –
14 | NC1=N[C@@]2(CO1)c1cc(-c3c(F)ccnc3F)ccc1Oc1cnc([C@@H]3CCCCO3)cc12 [Example 915, (5S)-7-(2,4-difluoro-3-pyridinyl)-3-((2S)-tetrahydro-2H-pyran-2-yl)spiro[chromeno[2,3-c]pyridine-5,4′-[1,3]oxazol]-2′-amine] | 2.5 nM | 23 nM | – | –
15 | NC1=N[C@@]2(CS1)c1cc(-c3cccnc3F)ccc1Oc1c(F)cc(N3C[C@H]4C[C@@H]3CO4)cc12 [Example 1085, (4S)-4′-fluoro-7′-(2-fluoro-3-pyridinyl)-2′-((1R,4R)-2-oxa-5-azabicyclo[2.2.1]hept-5-yl)spiro[1,3-thiazole-4,9′-xanthen]-2-amine] | 0.3 nM | – | 23 nM | –
16 | NC1=N[C@]2(CS1)c1cc(I)ccc1Oc1ncc(Br)cc12 [Example 579, (5R)-3-bromo-7-iodospiro[chromeno[2,3-b]pyridine-5,4′-[1,3]thiazol]-2′-amine] | 1930 nM | 3180 nM | – | –
17 | COc1ccc2c(c1)[C@@]1(COC(N)=N1)c1cc(C3(F)CCOCC3)cc(F)c1O2 [Example 939, (4S)-4′-fluoro-2′-(4-fluorotetrahydro-2H-pyran-4-yl)-7′-methoxyspiro[1,3-oxazole-4,9′-xanthen]-2-amine] | 1710 nM | 3560 nM | – | –
18 | Cc1ccnc(Oc2ccc3c(c2)[C@@]2(COC(N)=N2)c2cc(C4=CCOCC4)cc(F)c2O3)c1 [Example 1065, (4S)-2′-(3,6-dihydro-2H-pyran-4-yl)-4′-fluoro-7′-((4-methyl-2-pyridinyl)oxy)spiro[1,3-oxazole-4,9′-xanthen]-2-amine] | 37.7 nM | – | 1480 nM | –

The remaining lines, values ahead:

Row | IC50 [1] | IC50 [2, 3] | IC50 [2, 4] | IC50 ([2]; average IC50, HEK cells) | SMILES
19 | 3.5 nM | 14.4 nM | – | – | NC1=NC2(CO1)c1cc(-c3cccnc3F)ccc1Oc1c(F)cc(C3=CCOCC3)nc12 (centres unmarked) [Example 105, 2-(3,6-dihydro-2H-pyran-4-yl)-4-fluoro-8-(2-fluoropyridin-3-yl)-5′H-spiro[chromeno[3,2-b]pyridine-10,4′-oxazol]-2′-amine]
20 | 0.6 nM | – | 62 nM | – | NC1=N[C@@]2(CO1)c1cc(-c3cccnc3F)ccc1Oc1c(F)cc(N3CC4CC4C3)cc12 (stereo partly drawn) [Example 1054, (4S)-2′-(3-azabicyclo[3.1.0]hex-3-yl)-4′-fluoro-7′-(2-fluoro-3-pyridinyl)spiro[1,3-oxazole-4,9′-xanthen]-2-amine]
21 | 0.4 nM | 5 nM | – | – | NC1=N[C@@]2(CO1)c1cc(-c3cccnc3F)ccc1Oc1c2cc(C2=CCCCO2)nc1F [Example 657, (5S)-3-(3,4-dihydro-2H-pyran-6-yl)-1-fluoro-7-(2-fluoro-3-pyridinyl)spiro[chromeno[2,3-c]pyridine-5,4′-[1,3]oxazol]-2′-amine]
22 | 6.6 nM | 110 nM | – | – | NC1=N[C@@]2(CO1)c1cc(-c3cccnc3F)ccc1Oc1cnc(-c3cncnc3)cc12 [Example 571, (5S)-7-(2-fluoro-3-pyridinyl)-3-(5-pyrimidinyl)spiro[chromeno[2,3-c]pyridine-5,4′-[1,3]oxazol]-2′-amine]
23 | 0.3 nM | 5 nM | – | – | NC1=N[C@@]2(CO1)c1cc(-c3cccnc3F)ccc1Oc1c2cc(N2CC[C@H](F)C2)nc1F [Example 917, (5S)-1-fluoro-7-(2-fluoro-3-pyridinyl)-3-((3S)-3-fluoro-1-pyrrolidinyl)spiro[chromeno[2,3-c]pyridine-5,4′-[1,3]oxazol]-2′-amine]
24 | 3.3 nM | – | 29 nM | – | Cc1cc(-c2cc(F)c3c(c2)[C@]2(CSC(N)=N2)c2cc(-c4cccnc4F)ccc2O3)ccn1 [Example 1072, (4S)-4′-fluoro-7′-(2-fluoro-3-pyridinyl)-2′-(2-methyl-4-pyridinyl)spiro[1,3-thiazole-4,9′-xanthen]-2-amine]
25 | 0.9 nM | – | 131 nM | – | NC1=NC2(CO1)c1cc(-c3cccnc3F)ccc1Oc1c2cc(C#Cc2cccnc2)nc1F (centres unmarked) [Example 735, 1-fluoro-7-(2-fluoro-3-pyridinyl)-3-(3-pyridinylethynyl)spiro[chromeno[2,3-c]pyridine-5,4′-[1,3]oxazol]-2′-amine]
26 | 193 nM | – | 1090 nM | – | NC1=N[C@@]2(CO1)c1cc(-c3cccnc3F)ccc1Oc1cc(OC(F)(F)F)c(-c3ccnc(F)c3)cc12 [Example 991, (4S)-7′-(2-fluoro-3-pyridinyl)-2′-(2-fluoro-4-pyridinyl)-3′-(trifluoromethoxy)spiro[1,3-oxazole-4,9′-xanthen]-2-amine]
27 | 22.3 nM | – | 124 nM | – | NC1=NC2(CO1)c1cc(-c3cccnc3F)ccc1Oc1nc(F)c(-c3cccnc3F)cc12 (centres unmarked) [Example 147, 2-fluoro-3,7-bis(2-fluoro-3-pyridinyl)spiro[chromeno[2,3-b]pyridine-5,4′-[1,3]oxazol]-2′-amine]
28 | 530 nM | – | 685 nM | – | CC1(C)C=C(c2cnc3c(c2)[C@@]2(COC(N)=N2)c2c(ccc(-c4cccnc4F)c2F)O3)CCO1 [Example 350, (5S)-3-(6,6-dimethyl-3,6-dihydro-2H-pyran-4-yl)-6-fluoro-7-(2-fluoro-3-pyridinyl)spiro[chromeno[2,3-b]pyridine-5,4′-[1,3]oxazol]-2′-amine]

— patent US8883782B2, “Spiro-tetracyclic ring compounds as beta-secretase modulators and methods of use” (Amgen Inc., priority 2010, dated 2014)
